The values that follow come from patent publication US11839613B2, “Pyrimidine derivatives as PGE2 receptor modulators” (IDORSIA PHARMACEUTICALS LTD, priority 2017, dated 2023).

Read-outs that look alike come from different tables or passages of the source.

One experiment has as its target EP2 (Homo sapiens (Human), UniProt P43116). The experiment in a line: hEP2 cAMP assay (SF295 glioblastoma cells, HTRF cAMP). The format is cell-based. The following applies: antagonistic activity. In a few lines: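 PGE2-driven cAMP accumulation was measured by HTRF in SF295 cells, which express endogenous EP2 only. Cells in assay buffer with 2 mM IBMX were pre-incubated 45 min at RT, then incubated 30 min at RT. Detection used competition between cellular cAMP and d2-cAMP for a cryptate anti-cAMP antibody.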
For orientation: Changes in cAMP serve as a functional read-out for many G protein-coupled receptors.

The next experiment concerns the target EP4 (Homo sapiens (Human), UniProt P35408). Nature of the experiment: hEP4 cAMP assay (BT549 breast cancer cells, HTRF cAMP). It counts as cell-based. The following applies: antagonistic activity, PGE2 6 nM. In short, it runs like this:
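BT549 breast cancer cells (endogenous EP4) in HBSS/20 mM HEPES/0.2% BSA/2 mM IBMX preincubated 45 min at RT with compound, then stimulated 30 min at RT with 6 nM PGE2 (final). cAMP read by competitive HTRF immunoassay, signal inversely proportional to cAMP.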

Experiment [1] has as its target T1, PTGER4 (EP4) (Homo sapiens (Human), UniProt P35408).
In another experiment the target is PTGER2 (EP2) (Homo sapiens (Human), UniProt P43116). Nature of the experiment: hEP2 b-arrestin assay (PathHunter HEK 293 PTGER2 b-arrestin cells). It counts as cell-based. The following applies: antagonistic activity, beta-arrestin assay; read-out: hEP2 b-arr IC50. As for the experimental part: Plate is pre-incubated 15 minutes at 37° C. Then five microliters of PGE2 (final conc. 5 μM) are transferred into the assay plate. Plate is incubated 120 minutes at 37° C.
Sequence of PTGER2 (EP2) (P43116 whole entry): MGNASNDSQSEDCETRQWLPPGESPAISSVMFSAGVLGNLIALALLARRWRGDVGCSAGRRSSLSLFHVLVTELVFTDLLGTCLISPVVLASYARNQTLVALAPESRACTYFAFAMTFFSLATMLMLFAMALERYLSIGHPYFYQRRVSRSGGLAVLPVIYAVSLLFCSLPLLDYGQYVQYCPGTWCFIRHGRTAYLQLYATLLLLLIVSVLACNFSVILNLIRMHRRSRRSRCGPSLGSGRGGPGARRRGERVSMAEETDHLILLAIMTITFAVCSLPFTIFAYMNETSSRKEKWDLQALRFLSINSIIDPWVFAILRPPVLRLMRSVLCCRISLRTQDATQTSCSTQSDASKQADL
(each concentration is measured in duplicate)

For experiment [2], the target named is T1, PTGER4 (EP4). The experiment in a line: cell-based.

What is called IC50 is the midpoint of a concentration-inhibition curve.

Sequence of EP2 (P43116 whole entry): as above
T1 sequence (P35408 whole entry): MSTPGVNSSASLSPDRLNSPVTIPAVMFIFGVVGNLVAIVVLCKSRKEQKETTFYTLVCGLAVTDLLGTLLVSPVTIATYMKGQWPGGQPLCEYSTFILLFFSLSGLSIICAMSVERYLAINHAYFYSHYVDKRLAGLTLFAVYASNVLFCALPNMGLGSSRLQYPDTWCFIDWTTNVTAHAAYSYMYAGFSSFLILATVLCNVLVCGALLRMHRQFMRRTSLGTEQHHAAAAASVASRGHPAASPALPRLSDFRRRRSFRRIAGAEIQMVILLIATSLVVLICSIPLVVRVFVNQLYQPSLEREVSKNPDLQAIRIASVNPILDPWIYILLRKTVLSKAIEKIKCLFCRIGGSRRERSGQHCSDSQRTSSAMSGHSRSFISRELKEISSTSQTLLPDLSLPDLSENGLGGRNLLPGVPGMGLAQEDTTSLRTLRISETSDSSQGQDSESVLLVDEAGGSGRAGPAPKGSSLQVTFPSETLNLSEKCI
Sequence of EP4 (P35408 whole entry): as above

Turning to `CCOc1cc(-c2cc(NCCc3cc(C)c4c(c3)OCCO4)ncn2)sc1C(=O)O` [Ex 95], the IC50 at EP2 was determined as 447 nM; against EP4, 59 nM; at PTGER4 (EP4) [1] it was 25 nM.
The matching figures for `CCOc1cc(-c2cc(NCCc3ccc4ncsc4c3)ncn2)sc1C(=O)O` [Ex 91]: 586 nM, 56 nM and 40 nM.
The matching figures for `CCOc1cc(-c2cc(NCCc3cc4ccccc4cc3C#N)ncn2)ccc1C(=O)O` [Ex 92]: 1680 nM, 57 nM and 105 nM.
`O=C(O)c1ccc(-c2cc(NCCc3c(F)cc4ccccc4c3F)ncn2)cc1OC1CCC1` [Ex 333]: the IC50 on PTGER2 (EP2) was determined as 359 nM; against PTGER4 (EP4) [1], 128 nM.
`CCOc1cc(-c2cc(NCCc3cc4ccccc4cc3OC(F)F)ncn2)ccc1OCC(=O)O` [Ex 129]: the IC50 at EP2 amounted to 494 nM; against EP4, 104 nM; against PTGER4 (EP4) [1], 35 nM.
The matching figures for `CCOc1cc(-c2cc(NCCc3cc4ccccc4cc3C#N)ncn2)ccc1OCC(=O)O` [Ex 84]: 1280 nM, 47 nM and 19 nM.
Turning to `CCOc1cc(-c2cc(NCCc3cc4ccccc4c(Cl)c3OC)ncn2)sc1C(=O)O` [Ex 19], the IC50 worked out at 249 nM at EP2, 11 nM against EP4 and 16 nM on PTGER4 (EP4) [1].
For the compound `O=C(O)c1ccc(-c2cc(NCCc3ccc4cccc(F)c4c3)ncn2)cc1OC1CCC1` [Ex 231], the IC50 came to 5650 nM against EP2, 315 nM at EP4 and 286 nM at PTGER4 (EP4) [1].
Turning to “(4-{6-[2-(7-Ethynyl-2,3-dihydro-benzo[1,4]dioxin-6-yl)-ethylamino]-pyrimidin-4-yl}-2-propyl-phenyl)-acetic acid [Example 440]”, the IC50 against EP2 came out at 25 nM; on EP4 (BT549 cells), 65 nM; against PTGER4 (EP4) [1], 51 nM.
For the compound `N#Cc1cc2c(cc1CCNc1cc(-c3ccc(C(=O)O)c(OC4CCC4)c3)ncn1)OCCO2` [Ex 113], the IC50 on EP2 was 251 nM; against EP4, 82 nM; at PTGER4 (EP4) [1], 179 nM.
For `CCOc1cc(-c2cc(NCCc3cc4cccnc4cc3C)ncn2)sc1C(=O)O` [Ex 177], the IC50 amounted to 280 nM at EP2, 186 nM at EP4 and 156 nM at PTGER4 (EP4) [1].
The matching figures for `CCOc1cc(-c2cc(NCCc3cc4ccccc4cc3NC)ncn2)ccc1C(=O)O` [Ex 312]: 2490 nM, 689 nM and 556 nM.
On to `CCOc1cc(-c2cc(NCCc3c(C#N)cc4ccccc4c3C)ncn2)ccc1C(=O)O` [Ex 54], for which the IC50 at EP2 stood at 331 nM; at EP4, 27 nM; at PTGER4 (EP4) [1], 68 nM.
The matching figures for `CCOc1cc(-c2cc(NCCc3cc(F)c4ncccc4c3F)ncn2)sc1C(=O)O` [Ex 86]: 445 nM, 49 nM and 79 nM.
The matching figures for `CCOc1cc(-c2cc(NCCc3cc4c(cc3C#N)OCCO4)ncn2)ccc1C(=O)O` [Ex 203]: 687 nM, 237 nM and 352 nM.
Take `CCOc1cc(-c2cc(NCCc3ccc4sccc4c3)ncn2)ccc1OCC(=O)O` [Ex 121]: the IC50 against EP2 was 283 nM; on EP4 it was 93 nM; against PTGER4 (EP4) [1] it was 42 nM.
Consider `CCOc1cc(-c2cc(NCCc3cc4c(cc3Cl)OC(F)(F)O4)ncn2)sc1C(=O)O` [Ex 165], for which the IC50 against EP2 was determined as 333 nM; on EP4, 164 nM; against PTGER4 (EP4) [1], 188 nM.
Regarding `CCOc1cc(-c2cc(NCCc3ccc4sccc4c3)ncn2)ccc1OC(C)C(=O)O` (stereo not drawn) [Ex 202], the IC50 on EP2 worked out at 277 nM; on EP4, 234 nM; on PTGER4 (EP4) [1], 77 nM.
`C#Cc1c(CCNc2cc(-c3ccc(C(=O)O)c(OCC)c3)ncn2)ccc2ccccc12` [Ex 141]: the IC50 turned out to be 328 nM against EP2, 122 nM against EP4 and 131 nM at PTGER4 (EP4) [1].
As for `CCOc1cc(-c2cc(NCCc3ccc4ccccc4c3C)ncn2)ccc1OCCC(=O)O` [Ex 134], the IC50 against EP2 stood at 358 nM; against EP4, 84 nM; against PTGER4 (EP4) [1], 63 nM.
As for `CCOc1cc(-c2cc(NCCc3ccc4ccsc4c3)ncn2)ccc1OCC(=O)O` [Ex 144], the IC50 against EP2 came out at 751 nM; at EP4 it was 132 nM; at PTGER4 (EP4) [1], 91 nM.
On to `CCOc1cc(-c2cc(NCCc3cc4c(cc3OC)NCCC4)ncn2)sc1C(=O)O` [Ex 173], for which the IC50 on EP2 was found to be 769 nM; at EP4 it was 183 nM; against PTGER4 (EP4) [1] it was 128 nM.
`COc1cc2c(cc1CCNc1cc(-c3ccc(C(=O)O)c(SC)c3)ncn1)CCCN2` [Ex 329]: the half-maximal inhibitory concentration (IC50) is 755 nM at EP2, 956 nM against EP4 and 798 nM at PTGER4 (EP4) [1].
Consider `CCOc1cc(-c2cc(NCCc3cc4ccn(C)c4cc3F)ncn2)sc1C(=O)O` [Ex 16], for which the IC50 on EP2 came out at 269 nM; at EP4 it was 8 nM; at PTGER4 (EP4) [1], 5 nM.
Consider `CCOc1cc(-c2cc(NCCc3c(F)cc4ncccc4c3F)ncn2)ccc1OCC(=O)O` [Ex 191], for which the figures for the IC50 against EP2, at EP4 and at PTGER4 (EP4) [1] were 329 nM, 208 nM and 279 nM, respectively.
As to `CSc1cc(-c2cc(NCCc3c(F)cc4ccccc4c3F)ncn2)ccc1C(=O)O` [Ex 336], the IC50 at PTGER2 (EP2) is 225 nM; against PTGER4 (EP4) [1], 113 nM.
With `CCOc1cc(-c2cc(NCCc3ccc4c(c3)CCS4)ncn2)ccc1C(=O)O` [Ex 255], the results for the IC50 against EP2, at EP4 and against PTGER4 (EP4) [1] were 272 nM, 380 nM and 788 nM, respectively.
The matching figures for `CCOc1cc(-c2cc(NCCc3ccc4sccc4c3)nc(C)n2)ccc1CC(=O)O` [Ex 308]: 926 nM, 674 nM and 866 nM.
As for `O=C(O)c1ccc(-c2cc(NCCc3cc4ccccc4cc3OC(F)F)ncn2)cc1OC1CCC1` [Ex 180], the IC50 against EP2 is 692 nM; on EP4, 188 nM; at PTGER4 (EP4) [1], 55 nM.
Consider `CCOc1cc(-c2cc(NCCc3cc(F)c4sccc4c3)ncn2)ccc1C(=O)NCC(C)(C)O` [Example 463], for which the IC50 was determined as 934 nM at PTGER2 (EP2) and 223 nM against PTGER4 (EP4) [1].
As for “(4-{6-[2-(4-Fluoro-benzo[b]thiophen-5-yl)-ethylamino]-pyrimidin-4-yl}-2-trifluoromethoxy-phenyl)-acetic acid [Example 489]”, the IC50 at PTGER2 (EP2) was determined as 231 nM; on PTGER4 (EP4) [1] it was 128 nM.
Regarding `CCOc1cc2ccccc2c(C)c1CCNc1cc(-c2ccc(C(=O)O)c(SC)c2)ncn1` [Example 419, 4-{6-[2-(3-Ethoxy-1-methyl-naphthalen-2-yl)-ethylamino]-pyrimidin-4-yl}-2-methylsulfanyl-benzoic acid], the IC50 on PTGER2 (EP2) is 3 nM; against EP2, 29 nM; against EP4 (BT549 cells), 85 nM; on PTGER4 (EP4) [2], 30 nM.
As to `CCOc1cc(-c2cc(NCCc3ccc4[nH]ccc4c3)ncn2)sc1-c1noc(=O)[nH]1` [Example 339, 3-(3-Ethoxy-5-{6-[2-(1H-indol-5-yl)-ethylamino]-pyrimidin-4-yl}-thiophen-2-yl)-[1,2,4]oxadiazol-5(4H)-one], the half-maximal inhibitory concentration (IC50) amounted to 66 nM on PTGER2 (EP2), 90 nM on EP2, 22 nM on EP4 and 10 nM on PTGER4 (EP4) [2].
As for `CCCc1cc(-c2cc(NCCc3ccc4ccccc4c3C)ncn2)cc(F)c1C(=O)O` [Ex 74, 2-Fluoro-4-{6-[2-(1-methyl-naphthalen-2-yl)-ethylamino]-pyrimidin-4-yl}-6-propyl-benzoic acid], the IC50 is 450 nM on PTGER2 (EP2), 151 nM at EP2, 40 nM against EP4 and 257 nM on PTGER4 (EP4) [2].
As to `CCOc1cc(-c2cc(NCCc3c(F)c(F)c4cc(C)oc4c3OC)ncn2)ccc1C(=O)O` [Ex 215], the IC50 at PTGER2 (EP2) is 1590 nM; at EP2, 650 nM; on EP4, 259 nM; at PTGER4 (EP4) [2] it was 379 nM.
Consider `COc1cc2sccc2cc1CCNc1cc(-c2ccc(C(=O)O)c(SC)c2)ncn1` [Ex 18, 4-{6-[2-(6-Methoxy-benzo[b]thiophen-5-yl)-ethylamino]-pyrimidin-4-yl}-2-methylsulfanyl-benzoic acid], for which the IC50 on PTGER2 (EP2) turned out to be 6 nM; against EP2, 4 nM; against EP4 it was 10 nM; at PTGER4 (EP4) [2], 70 nM.
Consider `CCOc1cc(-c2cc(NCCc3cc4ccoc4cc3OC)ncn2)ccc1OCC(=O)O` [Ex 112, (2-Ethoxy-4-{6-[2-(6-methoxy-benzofuran-5-yl)-ethylamino]-pyrimidin-4-yl}-phenoxy)-acetic acid], for which the 50% inhibitory concentration (IC50) is 40 nM on PTGER2 (EP2), 69 nM against EP2, 82 nM at EP4 and 127 nM on PTGER4 (EP4) [2].
The matching figures for `CCOc1cc(-c2cc(NCCc3cc4c(cc3OC(F)F)OCO4)ncn2)sc1C(=O)O` [Ex 119, 5-{6-[2-(6-Difluoromethoxy-benzo[1,3]dioxol-5-yl)-ethylamino]-pyrimidin-4-yl}-3-ethoxy-thiophene-2-carboxylic acid]: 32 nM, 41 nM, 90 nM and 113 nM.
